Test results reported in US20070093460A1, “Methods of using selective 11beta-HSD inhibitors to treat gluocorticoid associated states” (priority 2005, published 2007).
Entries after “also recorded” stand apart in the source; their conditions may differ. Read-outs that look alike come from different tables or passages of the source.

Columns and labels:
[1] = biological target: 11β-HSD1 Reductase (Rattus norvegicus, UniProt P16232); assay: 11β-HSD1 reductase assay in rat Leydig cell homogenates;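 also: rat Leydig cell homogenate incubated 20 min at 37 °C, pH 7.4, with tritiated 11-dehydro-corticosterone and 3 mM NADPH, product measured by HPLC, inhibition from triplicate dose–response curves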
Protocol: (§1) Each enzyme reaction (described below) was stopped by adding 750 μL MeOH. After centrifugation, an aliquot of supernatant was analyzed by HPLC using a DuPont Zorbax C8 column.
(§2) 11β-HSD1 dehydrogenase was assayed by incubating homogenates (13,000 cells equivalent) with 600 nM [^3H]-B (0.5 μCi) in the presence of 3 mM NADP, 50 mM Tris-HCl; pH 8.4 at 37° C. for 10 minutes in a total volume of 250 μL. 11β-HSD1 reductase was assayed by incubating homogenates (52,000 cells equivalent) with 600 nM [^3H]-11-dehydro-corticosterone in presence of 3 mM NADPH, 50 mM Tris-HCl; pH 7.4 at 37° C. for 20 minutes in a total volume of 250 μL.
(§3) Each concentration was tested in triplicate and the dose response curve, showing percentage inhibition versus log concentration of steroid was plotted. The data fitted a log-linear straight line.

[2] = biological target: 11β-HSD1 Dehydrogenase (Rattus norvegicus, UniProt P16232); assay: 11β-HSD1 dehydrogenase assay in rat Leydig cell homogenates; assay type: biochemical; parameters: Freshly prepared rat Leydig cell homogenates were chosen since they provide a rich and reliable source of both 11β-HSD1 dehydrogenase and reductase; from tissue; host or cells: rat testicular Leydig cells, homogenate;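 also: tritiated corticosterone conversion by 11β-HSD1 dehydrogenase in Leydig homogenates with 3 mM NADP at pH 8.4, 37 °C for 10 min, products resolved by HPLC, inhibition relative to uninhibited enzyme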
Protocol: as §1, §2, §3

[3] = biological target: T1, 11β-HSD2 (Ovis aries, UniProt P50168); assay: 11β-HSD2 enzyme activity in sheep kidney microsomes; assay type: biochemical
T1 construct: incubating sheep kidney microsomal fraction (6.5 μg protein) with 50 nM corticosterone; from tissue; host or cells: sheep kidney microsomal fraction
T1 sequence (P50168 1-427): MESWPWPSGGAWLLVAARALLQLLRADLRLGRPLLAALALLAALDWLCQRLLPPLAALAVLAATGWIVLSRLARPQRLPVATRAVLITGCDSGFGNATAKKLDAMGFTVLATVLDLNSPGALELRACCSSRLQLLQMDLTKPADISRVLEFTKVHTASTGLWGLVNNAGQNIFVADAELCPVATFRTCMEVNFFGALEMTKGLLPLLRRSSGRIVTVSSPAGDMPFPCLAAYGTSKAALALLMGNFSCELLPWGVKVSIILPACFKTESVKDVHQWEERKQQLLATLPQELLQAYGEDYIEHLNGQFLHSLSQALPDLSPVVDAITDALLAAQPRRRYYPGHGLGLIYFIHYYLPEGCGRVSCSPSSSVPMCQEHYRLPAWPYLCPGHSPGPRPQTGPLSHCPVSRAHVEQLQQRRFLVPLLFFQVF
Excerpt: The enzymatic reaction was termninated by addition of methanol and synthesis of 11-dehydro-corticosterone was quantitated by HPLC as described above.

[4] = test system: normotensive SD rats; conditions: infused into normotensive SD rats; cited from earlier work
[5] = biological target: T2, 11β-HSD2 (Homo sapiens, UniProt P80365); conditions: Monder et al., 1993; Pearson Murphy et al., 1981; cited from earlier work
T2 sequence (P80365 1-405): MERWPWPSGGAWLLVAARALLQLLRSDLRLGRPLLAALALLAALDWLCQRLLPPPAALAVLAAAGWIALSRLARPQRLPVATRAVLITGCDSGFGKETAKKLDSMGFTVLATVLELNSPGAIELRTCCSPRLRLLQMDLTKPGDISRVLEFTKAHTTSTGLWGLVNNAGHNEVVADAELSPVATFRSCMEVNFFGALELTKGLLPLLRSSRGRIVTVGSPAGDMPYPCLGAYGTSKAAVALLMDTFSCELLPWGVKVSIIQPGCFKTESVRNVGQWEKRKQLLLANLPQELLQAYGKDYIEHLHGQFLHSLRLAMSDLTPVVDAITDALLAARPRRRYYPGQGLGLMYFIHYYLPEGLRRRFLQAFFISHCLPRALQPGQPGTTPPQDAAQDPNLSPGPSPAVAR

[6] = biological target: 11β-HSD1 (Homo sapiens, UniProt P28845); conditions: Monder et al., 1993; Pearson Murphy et al., 1981; cited from earlier work
Chain of 11β-HSD1 (P28845 whole entry, species assumed): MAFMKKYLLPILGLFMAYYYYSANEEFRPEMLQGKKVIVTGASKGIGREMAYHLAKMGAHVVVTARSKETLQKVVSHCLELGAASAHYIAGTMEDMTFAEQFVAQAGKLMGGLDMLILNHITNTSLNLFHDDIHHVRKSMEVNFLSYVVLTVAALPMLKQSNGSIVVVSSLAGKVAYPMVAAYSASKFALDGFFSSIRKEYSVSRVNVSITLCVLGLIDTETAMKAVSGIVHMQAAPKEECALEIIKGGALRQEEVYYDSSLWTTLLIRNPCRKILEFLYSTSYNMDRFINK

Chain of 11β-HSD1 Dehydrogenase (P16232 whole entry): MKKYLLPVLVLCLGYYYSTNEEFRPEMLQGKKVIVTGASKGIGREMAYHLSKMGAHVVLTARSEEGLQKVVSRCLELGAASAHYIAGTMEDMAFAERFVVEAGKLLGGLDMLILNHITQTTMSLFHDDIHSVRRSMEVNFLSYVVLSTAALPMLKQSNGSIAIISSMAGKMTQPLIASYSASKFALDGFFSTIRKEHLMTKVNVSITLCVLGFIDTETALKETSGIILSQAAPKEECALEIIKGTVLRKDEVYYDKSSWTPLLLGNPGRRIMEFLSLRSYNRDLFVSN
Chain of 11β-HSD1 Reductase (P16232 whole entry): as above

Structure (SMILES): CC(=O)[C@H]1CC[C@H]2[C@@H]3CC[C@H]4C[C@H](O)CC[C@]4(C)[C@H]3[C@@H](O)C[C@]12C [11β-OH-allopregnanolone, 5α-Pregnan-3α,11β-diol-2O-one]
- IC50 ([1]; read-out: Leydig Cell 11β-HSD1 Reductase [S] = 600 nM, rat Leydig cell homogenates, 600 nM 11-dehydro-corticosterone, progesterone and androgen derivatives): > 100 µM
- IC50 ([2]; rat Leydig cell homogenates, 600 nM corticosterone, progesterone and androgen derivatives, read-out: Leydig Cell 11β-HSDl Dehydrogenase [S] = 600 nM): 3 µM
- inhibitors of 11β-HSD1 dehydrogenase (summary in words) ([2]; summary of the screening): potent inhibitors; also recorded: high potency
- IC50 ([3]; sheep kidney microsomes, corticosterone substrate, progesterone and androgen derivatives, read-out: Sheep kidney 11β-HSD2 [S] = 50 nM): 0.12 µM
- inhibitors of 11β-HSD2 (summary in words) ([3]; summary of the screening): potent inhibitors; also recorded: high potency
- blood pressure [4]: increased BP

Structure (SMILES): C[C@]12CCC(=O)C=C1CC[C@@H]1[C@@H]2[C@@H](O)C[C@]2(C)C(=O)CC[C@@H]12 [11β-OH-Androstenedione, 4-Androsten-11β-ol-3,17-dione]
- IC50 [1]: > 100 µM
- IC50 [2]: > 100 µM
- Leydig Cell 11β-HSDl Dehydrogenase [S] = 600 nM ([2]; rat Leydig cell homogenates, 600 nM corticosterone, progesterone and androgen derivatives): inactive
- inhibition of 11β-HSD2 isoform [5]: poor inhibitor
- IC50 [3]: 7.8 µM
- Sheep kidney 11β-HSD2 [S] = 50 nM ([3]; sheep kidney microsomes, corticosterone substrate, progesterone and androgen derivatives): weak inhibitor
- inhibition of 11β-HSD1 isoform [6]: poor inhibitor
